The target in this assay is ROCK2 (Homo sapiens, UniProt O75116). Put plainly: ROCK2 kinase inhibition assay (LABCHIP 3000 Reader, FITC peptide substrate).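 Note: rho kinase reaction read by separating phosphorylated from unphosphorylated peptide on chip, with inhibition of kinase activity computed per concentration across a dose-response series.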

The term IC50 denotes the concentration that gives 50% inhibition. A higher IC50 goes with weaker potency.

Chain of ROCK2 (O75116 whole entry, species assumed): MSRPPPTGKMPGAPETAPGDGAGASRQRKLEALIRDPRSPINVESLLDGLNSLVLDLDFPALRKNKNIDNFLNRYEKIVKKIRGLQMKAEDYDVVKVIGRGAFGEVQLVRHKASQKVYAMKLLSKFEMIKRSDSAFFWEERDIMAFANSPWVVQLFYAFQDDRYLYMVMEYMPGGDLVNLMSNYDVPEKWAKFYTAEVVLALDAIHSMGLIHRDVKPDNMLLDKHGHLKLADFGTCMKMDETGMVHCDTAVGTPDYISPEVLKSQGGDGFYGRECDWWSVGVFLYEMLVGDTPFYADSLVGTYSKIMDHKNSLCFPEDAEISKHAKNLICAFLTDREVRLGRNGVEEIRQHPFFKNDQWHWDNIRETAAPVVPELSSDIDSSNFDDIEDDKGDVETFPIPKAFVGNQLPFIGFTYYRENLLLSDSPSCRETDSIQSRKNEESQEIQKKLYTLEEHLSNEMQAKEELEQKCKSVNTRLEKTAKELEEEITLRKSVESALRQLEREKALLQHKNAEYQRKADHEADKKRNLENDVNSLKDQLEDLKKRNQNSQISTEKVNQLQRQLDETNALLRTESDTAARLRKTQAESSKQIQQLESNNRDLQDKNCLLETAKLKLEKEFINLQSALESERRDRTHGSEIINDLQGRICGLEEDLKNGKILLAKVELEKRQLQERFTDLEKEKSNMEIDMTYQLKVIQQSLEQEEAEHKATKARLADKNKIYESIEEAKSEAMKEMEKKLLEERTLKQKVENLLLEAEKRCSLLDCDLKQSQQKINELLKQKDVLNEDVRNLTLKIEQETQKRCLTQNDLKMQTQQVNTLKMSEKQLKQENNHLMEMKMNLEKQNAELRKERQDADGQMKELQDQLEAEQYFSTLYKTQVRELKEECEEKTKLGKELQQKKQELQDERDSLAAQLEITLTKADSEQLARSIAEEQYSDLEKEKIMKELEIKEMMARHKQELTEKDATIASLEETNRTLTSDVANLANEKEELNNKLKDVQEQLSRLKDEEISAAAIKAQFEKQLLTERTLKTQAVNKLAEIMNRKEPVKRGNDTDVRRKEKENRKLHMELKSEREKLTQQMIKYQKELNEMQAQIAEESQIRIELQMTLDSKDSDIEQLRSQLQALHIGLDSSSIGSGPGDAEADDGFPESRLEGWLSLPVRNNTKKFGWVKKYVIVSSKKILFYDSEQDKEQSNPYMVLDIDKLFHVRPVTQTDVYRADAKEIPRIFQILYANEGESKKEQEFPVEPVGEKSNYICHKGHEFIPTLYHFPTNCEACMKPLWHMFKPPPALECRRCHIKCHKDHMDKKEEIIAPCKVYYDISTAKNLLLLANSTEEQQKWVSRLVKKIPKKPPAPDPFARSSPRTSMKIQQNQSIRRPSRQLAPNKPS

Regarding `CC(C)(O)COc1ccc2c(C(=O)NC3CC4(C3)CC(Oc3cc(-c5ncccn5)ccc3C(N)=O)C4)cnn2c1` (centres unmarked) [Example 222, N-(6-(2-carbamoyl-5-(pyrimidin-2-yl)phenoxy)spiro[3.3]heptan-2-yl)-6-(2-hydroxy-2-methylpropoxy)pyrazolo[1,5-a]pyridine-3-carboxamide], the concentration for half-maximal inhibition (IC50) is 5 to 50 nM.

The compound `CC(C)(O)COc1ccc2c(C(=O)NC3CC4(C3)CC(Oc3cc(-n5cccn5)ccc3C(N)=O)C4)cnn2c1` (centres unmarked) [Example 223, N-(6-(2-carbamoyl-5-(1H-pyrazol-1-yl)phenoxy)spiro[3.3]heptan-2-yl)-6-(2-hydroxy-2-methylpropoxy)pyrazolo[1,5-a]pyridine-3-carboxamide] gave an IC50 of 5 to 50 nM.

`CN1CCN(c2ccc(C(N)=O)c(OC3CC4(CC(NC(=O)c5cnn6cc(OCC(C)(C)O)ccc56)C4)C3)c2)CC1` (centres unmarked) [Example 224, N-(6-(2-carbamoyl-5-(4-methylpiperazin-1-yl)phenoxy)spiro[3.3]heptan-2-yl)-6-(2-hydroxy-2-methylpropoxy)pyrazolo[1,5-a]pyridine-3-carboxamide] returned an IC50 of 5 to 50 nM.

The compound `CC(C)(O)COc1ccc2c(C(=O)NC3CC4(C3)CC(Oc3cc(-c5ccncc5)ccc3C(N)=O)C4)cnn2c1` (centres unmarked) [Example 225, N-(6-(2-carbamoyl-5-(pyridin-4-yl)phenoxy)spiro[3.3]heptan-2-yl)-6-(2-hydroxy-2-methylpropoxy)pyrazolo[1,5-a]pyridine-3-carboxamide] had an IC50 of 5 to 50 nM.

In the case of `CC(C)(O)COc1ccc2c(C(=O)NC3CC4(C3)CC(Oc3cc(C5CNC5)ccc3C(N)=O)C4)cnn2c1` (centres unmarked) [Example 226, N-(6-(5-(azetidin-3-yl)-2-carbamoylphenoxy)spiro[3.3]heptan-2-yl)-6-(2-hydroxy-2-methylpropoxy)pyrazolo[1,5-a]pyridine-3-carboxamide], the IC50 was in the range of 50 to 250 nM.

Turning to `CC(C)(O)COc1ccc2c(C(=O)NC3CC4(C3)CC(Oc3cc(N5CCCC5)ccc3C(N)=O)C4)cnn2c1` (centres unmarked) [Example 227, N-(6-(2-carbamoyl-5-(pyrrolidin-1-yl)phenoxy)spiro[3.3]heptan-2-yl)-6-(2-hydroxy-2-methylpropoxy)pyrazolo[1,5-a]pyridine-3-carboxamide], the IC50 was in the range of 5 to 50 nM.

In turn, `CC(C)(O)COc1ccc2c(C(=O)NC3CC4(C3)CC(Oc3cc(-c5ccccc5C(F)(F)F)ccc3C(N)=O)C4)cnn2c1` (centres unmarked) [Example 228, N-(6-((4-carbamoyl-2′-(trifluoromethyl)-[1,1′-biphenyl]-3-yl)oxy)spiro[3.3]heptan-2-yl)-6-(2-hydroxy-2-methylpropoxy)pyrazolo[1,5-a]pyridine-3-carboxamide] registered an IC50 of 50 to 250 nM.

Consider `CC(C)(O)COc1ccc2c(C(=O)NC3CC4(C3)CC(Oc3cc(-c5ccccc5F)ccc3C(N)=O)C4)cnn2c1` (centres unmarked) [Example 229, N-(6-((4-carbamoyl-2′-fluoro-[1,1′-biphenyl]-3-yl)oxy)spiro[3.3]heptan-2-yl)-6-(2-hydroxy-2-methylpropoxy)pyrazolo[1,5-a]pyridine-3-carboxamide], for which the concentration for half-maximal inhibition (IC50) lay within 5 to 50 nM.

`CC(C)(O)COc1ccc2c(C(=O)NC3CC4(C3)CC(Oc3cc(N5CCOCC5)ccc3C(N)=O)C4)cnn2c1` (centres unmarked) [Example 230, N-(6-(2-carbamoyl-5-morpholinophenoxy)spiro[3.3]heptan-2-yl)-6-(2-hydroxy-2-methylpropoxy)pyrazolo[1,5-a]pyridine-3-carboxamide] yielded a 50% inhibitory concentration (IC50) of 50 to 250 nM.

`CC(C)(O)COc1ccc2c(C(=O)NC3CC4(C3)CC(Oc3cc(-c5cccc(F)n5)ccc3C(N)=O)C4)cnn2c1` (centres unmarked) [Example 231, N-(6-(2-carbamoyl-5-(6-fluoropyridin-2-yl)phenoxy)spiro[3.3]heptan-2-yl)-6-(2-hydroxy-2-methylpropoxy)pyrazolo[1,5-a]pyridine-3-carboxamide] had an IC50 of less than 5 nM.

Compound `COC(=O)c1cncc(-c2ccc(C(N)=O)c(OC3CC4(CC(NC(=O)c5cnn6cc(OCC(C)(C)O)ccc56)C4)C3)c2)c1` (centres unmarked) [Example 232, methyl 5-(4-carbamoyl-3-((6-(6-(2-hydroxy-2-methylpropoxy)pyrazolo[1,5-a]pyridine-3-carboxamido)spiro[3.3]heptan-2-yl)oxy)phenyl)nicotinate] registered an IC50 of 5 to 50 nM.

As for `COCCOC(=O)Nc1ccc(-c2ccc(C(N)=O)c(OC3CC4(CC(NC(=O)c5cnn6cc(OCC(C)(C)O)ccc56)C4)C3)c2)cn1` (centres unmarked) [Example 233, 2-methoxyethyl (5-(4-carbamoyl-3-((6-(6-(2-hydroxy-2-methylpropoxy)pyrazolo[1,5-a]pyridine-3-carboxamido)spiro[3.3]heptan-2-yl)oxy)phenyl)pyridin-2-yl)carbamate], the IC50 fell in the range of 5 to 50 nM.

`CC(C)(O)COc1ccc2c(C(=O)NC3CC4(C3)CC(Oc3cc(-c5ccc(C(C)(C)O)nc5)ccc3C(N)=O)C4)cnn2c1` (centres unmarked) [Example 234, N-(6-(2-carbamoyl-5-(6-(2-hydroxypropan-2-yl)pyridin-3-yl)phenoxy)spiro[3.3]heptan-2-yl)-6-(2-hydroxy-2-methylpropoxy)pyrazolo[1,5-a]pyridine-3-carboxamide]: the IC50 was 50 to 250 nM.

Compound `COc1cccc(-c2ccc(C(N)=O)c(OC3CC4(CC(NC(=O)c5cnn6cc(OCC(C)(C)O)ccc56)C4)C3)c2)n1` (centres unmarked) [Example 235, N-(6-(2-carbamoyl-5-(6-methoxypyridin-2-yl)phenoxy)spiro[3.3]heptan-2-yl)-6-(2-hydroxy-2-methylpropoxy)pyrazolo[1,5-a]pyridine-3-carboxamide] registered an IC50 of 5 to 50 nM.

Consider `CC(C)(O)COc1ccc2c(C(=O)NC3CC4(C3)CC(Oc3cc(-c5cccc(N)n5)ccc3C(N)=O)C4)cnn2c1` (centres unmarked) [Example 236, N-(6-(5-(6-aminopyridin-2-yl)-2-carbamoylphenoxy)spiro[3.3]heptan-2-yl)-6-(2-hydroxy-2-methylpropoxy)pyrazolo[1,5-a]pyridine-3-carboxamide], for which the IC50 was in the range of 5 to 50 nM.

Turning to `CC(C)(O)COc1ccc2c(C(=O)NC3CC4(C3)CC(Oc3cc(-c5ccccn5)ccc3C(N)=O)C4)cnn2c1` (centres unmarked) [Example 237, N-(6-(2-carbamoyl-5-(pyridin-2-yl)phenoxy)spiro[3.3]heptan-2-yl)-6-(2-hydroxy-2-methylpropoxy)pyrazolo[1,5-a]pyridine-3-carboxamide], the IC50 lay within 5 to 50 nM.

Take `CC(C)(O)COc1ccc2c(C(=O)NC3CC4(C3)CC(Oc3cc(-c5cccc(OCC(F)(F)F)c5)ccc3C(N)=O)C4)cnn2c1` (centres unmarked) [Example 238, N-(6-((4-carbamoyl-3′-(2,2,2-trifluoroethoxy)-[1,1′-biphenyl]-3-yl)oxy)spiro[3.3]heptan-2-yl)-6-(2-hydroxy-2-methylpropoxy)pyrazolo[1,5-a]pyridine-3-carboxamide]: the IC50 is 50 to 250 nM.

In the case of `COc1cccc(-c2ccc(C(N)=O)c(OC3CC4(CC(NC(=O)c5cnn6cc(OCC(C)(C)O)ccc56)C4)C3)c2)c1` (centres unmarked) [Example 239, N-(6-((4-carbamoyl-3′-methoxy-[1,1′-biphenyl]-3-yl)oxy)spiro[3.3]heptan-2-yl)-6-(2-hydroxy-2-methylpropoxy)pyrazolo[1,5-a]pyridine-3-carboxamide], the IC50 was 5 to 50 nM.

The compound `CC(C)(O)COc1ccc2c(C(=O)NC3CC4(C3)CC(Oc3cc(-c5cccc(O)c5)ccc3C(N)=O)C4)cnn2c1` (centres unmarked) [Example 240, N-(6-((4-carbamoyl-3′-hydroxy-[1,1′-biphenyl]-3-yl)oxy)spiro[3.3]heptan-2-yl)-6-(2-hydroxy-2-methylpropoxy)pyrazolo[1,5-a]pyridine-3-carboxamide] returned an IC50 of 5 to 50 nM.

`CC(C)(O)COc1ccc2c(C(=O)NC3CC4(C3)CC(Oc3cc(-c5cccc(C(F)F)c5)ccc3C(N)=O)C4)cnn2c1` (centres unmarked) [Example 241, N-(6-((4-carbamoyl-3′-(difluoromethyl)-[1,1′-biphenyl]-3-yl)oxy)spiro[3.3]heptan-2-yl)-6-(2-hydroxy-2-methylpropoxy)pyrazolo[1,5-a]pyridine-3-carboxamide] yielded an IC50 of 5 to 50 nM.

Regarding `CC(C)(O)COc1ccc2c(C(=O)NC3CC4(C3)CC(Oc3cc(-c5cccc(F)c5)ccc3C(N)=O)C4)cnn2c1` (centres unmarked) [Example 242, N-(6-((4-carbamoyl-3′-fluoro-[1,1′-biphenyl]-3-yl)oxy)spiro[3.3]heptan-2-yl)-6-(2-hydroxy-2-methylpropoxy)pyrazolo[1,5-a]pyridine-3-carboxamide], the concentration for half-maximal inhibition (IC50) lay within 5 to 50 nM.

The compound `CC(C)(O)COc1ccc2c(C(=O)NC3CC4(C3)CC(Oc3cc(-c5cccc(C(F)(F)F)c5)ccc3C(N)=O)C4)cnn2c1` (centres unmarked) [Example 243, N-(6-((4-carbamoyl-3′-(trifluoromethyl)-[1,1′-biphenyl]-3-yl)oxy)spiro[3.3]heptan-2-yl)-6-(2-hydroxy-2-methylpropoxy)pyrazolo[1,5-a]pyridine-3-carboxamide] returned an IC50 of 50 to 250 nM.

Compound `CC(C)(O)COc1ccc2c(C(=O)NC3CC4(C3)CC(Oc3cc(-c5cccc(C#N)c5)ccc3C(N)=O)C4)cnn2c1` (centres unmarked) [Example 244, N-(6-((4-carbamoyl-3′-cyano-[1,1′-biphenyl]-3-yl)oxy)spiro[3.3]heptan-2-yl)-6-(2-hydroxy-2-methylpropoxy)pyrazolo[1,5-a]pyridine-3-carboxamide] returned an IC50 of less than 5 nM.

The compound `COCc1cccc(-c2ccc(C(N)=O)c(OC3CC4(CC(NC(=O)c5cnn6cc(OCC(C)(C)O)ccc56)C4)C3)c2)c1` (centres unmarked) [Example 245, N-(6-((4-carbamoyl-3′-(methoxymethyl)-[1,1′-biphenyl]-3-yl)oxy)spiro[3.3]heptan-2-yl)-6-(2-hydroxy-2-methylpropoxy)pyrazolo[1,5-a]pyridine-3-carboxamide] came in with an IC50 of 5 to 50 nM.

Compound `Cc1nn(-c2cccc(-c3ccc(C(N)=O)c(OC4CC5(CC(NC(=O)c6cnn7cc(OCC(C)(C)O)ccc67)C5)C4)c3)c2)c(N)c1C#N` (centres unmarked) [Example 246, N-(6-((3′-(5-amino-4-cyano-3-methyl-1H-pyrazol-1-yl)-4-carbamoyl-[1,1′-biphenyl]-3-yl)oxy)spiro[3.3]heptan-2-yl)-6-(2-hydroxy-2-methylpropoxy)pyrazolo[1,5-a]pyridine-3-carboxamide] showed an IC50 of 5 to 50 nM.

With `CC(C)(O)COc1ccc2c(C(=O)NC3CC4(C3)CC(Oc3cc(-c5cccc(CO)c5)ccc3C(N)=O)C4)cnn2c1` (centres unmarked) [Example 247, N-(6-((4-carbamoyl-3′-(hydroxymethyl)-[1,1′-biphenyl]-3-yl)oxy)spiro[3.3]heptan-2-yl)-6-(2-hydroxy-2-methylpropoxy)pyrazolo[1,5-a]pyridine-3-carboxamide], the IC50 was less than 5 nM.

Source of the values: patent US10829501B2 (BRISTOL-MYERS SQUIBB COMPANY, priority 2016, dated 2020).
